Assay results as given in patent US5348970A, “Antifungal compound and compositions containing the compound” (Merck & Co., Inc., priority 1993, dated 1994).
Converted amounts (≈) assume the structure as drawn.

Tests used:
Format in all cases: cell-based
[1] = tested on: Aspergillus fumigatus; assay: Broth dilution MIC, antifungal activity (spore inoculum); conditions: 18 h, strain MF 5668
Method: (§1) Minimum Inhibitory Concentrations The antifungal activity of the compound of formula 1 was determined using broth dilution assays. The compound was dissolved in DMSO at 3.7 mg/mL and serially diluted in 1% aqueous DMSO. The yeast strains including Candida species and Cryptococcal species were grown to exponential phase in a complex medium composed of 1% peptone, 0.5% yeast extract and 0.05% dextrose (CM) at 29° C. The yeast cells were diluted in CM to A600 =0.004 U/mL which was previously determined to be equal to 3000 colony forming units per milliliter. 180 uL of inoculated CM was added to the wells of a 96 well microtiter dish containing 20 μL of diluted inhibitor samples. The final concentration of the compound in the wells ranged from 37-0.01 μg/ml. The microtiter dishes were incubated for 18 hours at 29° C. and visually inspected for growth. The minimum inhibitory concentration (MIC) was recorded as the lowest concentration of compound to prevent visible growth.
(§2) The same procedure was used to determine the MIC of the compound against the filamentous fungi, Aspergillus fumigatus MF 5668, except a spore inoculum was prepared. Spores of A. fumigatus were obtained by washing a well sporulated slant of the organism growing on potato dextrose agar with 0.05% tween 80 solution. […]

[2] = tested on: Cryptococcus neoformans; assay: Broth dilution MIC, antifungal activity; conditions: 18 h
Method: as §1

[3] = tested on: Candida albicans; assay: Broth dilution MIC, antifungal activity; conditions: strain MY 1055, 18 hours, 29° C.
Method: as §1

[4] = tested on: Candida tropicalis; assay: Broth dilution MIC, antifungal activity; conditions: strain MY 2167, 18 hours, 29° C.
Method: as §1

[5] = tested on: Candida krusei; assay: Broth dilution MIC, antifungal activity; conditions: Pichia kudriavzevii; strain MY 2168; 18 hours, 29° C.
Method: as §1

[6] = tested on: Candida parapsilosis; assay: Broth dilution MIC, antifungal activity; conditions: Lodderomyces parapsilosis; strain MY 1010; 18 hours, 29° C.
Method: as §1

[7] = tested on: Proteus vulgaris; assay: Broth dilution MIC, antibacterial activity; conditions: strain MB 838, 24 hours, 28° C.
Method: (§3) The antibacterial activity of the compound was determined using broth dilution assays. The compound was dissolved in DMSO at 10 mg/mL and serially diluted in Luria Broth (LB), composed of […]. The Enterococcal strains were grown in Brain Heart Infusion broth; Staphylococcus aureus (MB2865) was grown in LB; S. aureus (MB108) and (MB2949) and Proteus vulgaris were grown in Nutrient Broth with 2% yeast extract. All bacterial strains were incubated overnight at 37° C. The bacterial cells were diluted 10^-4 in LB to give approximately 5×10^4 to 1×10^5 colony forming units per milliliter. 180 μL of inoculated LB was added to the wells of a 96 well microtiter dish containing 20 μL of diluted inhibitor samples. The final concentration of the compound in the wells ranged from 500-0.00025 μg/ml. The microtiter dishes were incubated for 24 hours at 28° C. and visually inspected for growth. The minimum inhibitory concentration (MIC) was recorded as the lowest concentration of compound to prevent visible growth.

[8] = tested on: Entercoccus faecium; assay: Broth dilution MIC, antibacterial activity; conditions: 24 h
Method: as §3

[9] = tested on: Staphylococcus aureus; assay: Broth dilution MIC, antibacterial activity; conditions: 24 h
Method: as §3

[10] = tested on: bacterial strains; assay: Antibacterial activity in vitro (general statement); conditions: qualitative statement
Method: as §3

[11] = tested on: fungi; assay: Antifungal activity in vitro (general statement); conditions: qualitative statement
Method: as §1, §2

CCCCCCCCCC1OC1/C=C/C(=O)C1(O)C(=O)NC(CO)C1O (stereo not drawn) [Compound 1]
MIC [1]: 37 µg/mL (≈ 100 µM)
MIC ([2]; strain MY 2061, 29° C.): 7.4 µg/mL (≈ 20 µM)
MIC ([2]; strain MY 2062, 29° C.): 0.02 µg/mL (≈ 0.0541 µM)
MIC [3]: 7.4 µg/mL (≈ 20 µM)
MIC [4]: 7.4 µg/mL (≈ 20 µM)
MIC [5]: > 37 µg/mL
MIC [6]: 1.5 µg/mL (≈ 4.06 µM)
MIC [7]: > 500 µg/mL
MIC ([8]; strain MB 5571, 28° C.): 2 µg/mL (≈ 5.41 µM)
MIC ([8]; strain MB 5572, 28° C.): 1 µg/mL (≈ 2.71 µM)
MIC ([9]; strain MB 108, 28° C.): 0.5 µg/mL (≈ 1.35 µM)
MIC ([9]; strain MB 2865, 28° C.): 0.5 µg/mL (≈ 1.35 µM)
MIC ([9]; strain MB 2949, 28° C.): 125 to 250 µg/mL (≈ 338 to 677 µM)
antibacterial activity [10]: antifungal and antibacterial activity
antifungal activity [11]: antifungal and antibacterial activity
